Experimental data taken from patent publication US9457033B2, “Steroid alkaloids and uses thereof as antimicrobial agents against electron transport-deficient microbes and as potentiators for antimicrobial agents against pathogenic bacteria” (priority 2011, dated 2016).
≈ marks a conversion by molar mass, not a printed value. Values belong to the compound of their own block, whether it stands above or below them.

Key:
S. aureus ATCC 29213 [1] = experiment: MICs of control antibiotics for macromolecular biosynthesis assays; format: cell-based; settings: Staphylococcus aureus, ATCC29213
S. aureus CF35A-L = experiment: MIC, microdilution in CAMHB 24 h; format: cell-based, Staphylococcus aureus; settings: Staphylococcus aureus, MRSA
S. aureus CF8E-L = experiment: MIC, microdilution in CAMHB 24 h; format: cell-based, Staphylococcus aureus; settings: Staphylococcus aureus, CF8EL
S. aureus CF07-L = experiment: MIC, microdilution in CAMHB 24 h; format: cell-based, Staphylococcus aureus; settings: Staphylococcus aureus, CF07L
S. aureus CF9A-L = experiment: MIC, microdilution in CAMHB 24 h; format: cell-based, Staphylococcus aureus; settings: Staphylococcus aureus, MRSA
S. aureus ATCC 29213 [2] = experiment: MIC, microdilution in BHI 48 h (Examples 1, 3); format: cell-based, Staphylococcus aureus
S. aureus Newman = experiment: MIC, microdilution in CAMHB 24 h; format: cell-based, Staphylococcus aureus; settings: Staphylococcus aureus, NEWMAN
[3] = system: S. aureus CF1A-L (normal strain); experiment: MIC, microdilution in BHI 48 h; format: cell-based, Staphylococcus aureus; settings: Staphylococcus aureus
[4] = system: S. aureus CF07-L (normal strain); experiment: MIC, microdilution in BHI 48 h (Examples 1, 3); format: cell-based, Staphylococcus aureus
[5] = system: S. aureus Newbould (normal strain); experiment: MIC, microdilution in BHI 48 h; format: cell-based, Staphylococcus aureus; settings: Staphylococcus aureus
S. aureus Newbould = experiment: MIC, microdilution in CAMHB 24 h; format: cell-based, Staphylococcus aureus; settings: Staphylococcus aureus
[6] = system: S. aureus SCV NewbouldΔhemB; experiment: MIC, microdilution in BHI 48 h; format: cell-based, Staphylococcus aureus; settings: Staphylococcus aureus
S. aureus ATCC 43300 = experiment: MIC, microdilution in CAMHB 24 h; format: cell-based, Staphylococcus aureus; settings: Staphylococcus aureus, ATCC 43300 / MRSA
S. aureus ATCC BAA-41 = experiment: MIC, microdilution in CAMHB 24 h; format: cell-based, Staphylococcus aureus; settings: Staphylococcus aureus, ATCC BAA-41 / MRSA
S. aureus CF1A-L = experiment: MIC, microdilution in CAMHB 24 h; format: cell-based, Staphylococcus aureus; settings: Staphylococcus aureus, CF1AL
S. aureus N315 = experiment: microbe, parasite or virus in culture; format: cell-based, Staphylococcus aureus; settings: Staphylococcus aureus, MRSA
S. aureus CF7A-L = experiment: MIC, microdilution in CAMHB 24 h; format: cell-based, Staphylococcus aureus; settings: Staphylococcus aureus, MRSA
S. aureus CF6B-L = experiment: MIC, microdilution in CAMHB 24 h; format: cell-based, Staphylococcus aureus; settings: Staphylococcus aureus, CF6BL
S. aureus MA078038 = experiment: MIC, microdilution in CAMHB 24 h; format: cell-based, Staphylococcus aureus; settings: Staphylococcus aureus, MRSA
S. aureus SHY97-3906 = experiment: MIC, microdilution in CAMHB 24 h; format: cell-based, Staphylococcus aureus; settings: Staphylococcus aureus, SHY973906
S. aureus SCV CF1D-S = experiment: MIC, microdilution in BHI 48 h; format: cell-based, Staphylococcus aureus; settings: Staphylococcus aureus, SCVCF1DS
S. aureus Mu50 = experiment: MIC, microdilution in CAMHB 24 h; format: cell-based, Staphylococcus aureus; settings: Staphylococcus aureus, MRSA / VISA
S. aureus ATCC 29213 [7] = experiment: MIC, microdilution in CAMHB 24 h, with or without tomatidine/compound; format: cell-based, Staphylococcus aureus; settings: for MIC: Staphylococcus aureus
S. aureus SCV CF07-S = experiment: MIC, microdilution in BHI 48 h (Examples 1, 3); format: cell-based, Staphylococcus aureus
S. aureus CF4B-L = experiment: MIC, microdilution in CAMHB 24 h; format: cell-based, Staphylococcus aureus; settings: Staphylococcus aureus, CF4BL
S. aureus Sa228c = experiment: MIC, microdilution in CAMHB 24 h; format: cell-based, Staphylococcus aureus; settings: Staphylococcus aureus, MRSA
S. aureus CF2A-L = experiment: MIC, microdilution in CAMHB 24 h; format: cell-based; settings: Staphylococcus aureus, CF2AL
S. aureus 8325-4 = experiment: MIC, microdilution in CAMHB 24 h; format: cell-based, Staphylococcus aureus; settings: Staphylococcus aureus, 83254
[8] = system: protein, DNA, RNA and cell wall peptidoglycan biosynthesis in ATCC 29213; experiment: Macromolecular biosynthesis assay, incorporation of radiolabeled precursors; format: cell-based, Staphylococcus aureus; settings: control antibiotics at approximately 4×MIC; FIG. 3A
S. aureus Sa220c = experiment: MIC, microdilution in CAMHB 24 h; format: cell-based, Staphylococcus aureus; settings: Staphylococcus aureus, MRSA
S. aureus MRSA COL = experiment: MIC, microdilution in CAMHB 24 h; format: cell-based, Staphylococcus aureus; settings: Staphylococcus aureus, MRSA
[9] = ATCC 29213, data not shown, read-out: MIC

SMILES: CN[C@H](CC(C)C)C(=O)N[C@H]1C(=O)N[C@@H](CC(N)=O)C(=O)N[C@H]2C(=O)N[C@H]3C(=O)N[C@H](C(=O)N[C@H](C(=O)O)c4cc(O)cc(O)c4-c4cc3ccc4O)[C@H](O)c3ccc(c(Cl)c3)Oc3cc2cc(c3O[C@@H]2O[C@H](CO)[C@@H](O)[C@H](O)[C@H]2O[C@H]2C[C@](C)(N)[C@H](O)[C@H](C)O2)Oc2ccc(cc2Cl)[C@H]1O [Vancomycin, vancomycin]
MIC (S. aureus ATCC 29213 [1]): 0.5 to 1 µg/mL (≈ 0.345 to 0.69 µM)
MIC (S. aureus CF35A-L): 1 µg/mL (≈ 0.69 µM)
MIC (S. aureus CF8E-L): 1 to 2 µg/mL (≈ 0.69 to 1.38 µM)
MIC (S. aureus CF07-L): 1 to 2 µg/mL (≈ 0.69 to 1.38 µM)
MIC (S. aureus CF9A-L): 1 µg/mL (≈ 0.69 µM)
MIC (S. aureus ATCC 29213 [2]; ATCC 29213 + HQNO at 20 μg/ml): 2 µg/mL
MIC (S. aureus ATCC 29213 [2]; Staphylococcus aureus, ATCC29213, ATCC 29213, without HQNO): 2 µg/mL (≈ 1.38 µM)
MIC (S. aureus ATCC 29213 [2]; Staphylococcus aureus, ATCC29213, ATCC 29213 in BHI): 2 µg/mL (≈ 1.38 µM)
MIC (S. aureus ATCC 29213 [2]; Staphylococcus aureus, ATCC29213, ATCC 29213 in MHBCA): 1 to 2 µg/mL (≈ 0.69 to 1.38 µM)
MIC (S. aureus Newman): 1 µg/mL (≈ 0.69 µM)
MIC [3]: 1 to 2 µg/mL (≈ 0.69 to 1.38 µM)
MIC ([4]; CF07-L + HQNO at 20 μg/ml): 2 µg/mL
MIC ([4]; CF07-L, without HQNO): 2 µg/mL (≈ 1.38 µM)
MIC ([4]; Staphylococcus aureus): 2 µg/mL (≈ 1.38 µM)
MIC [5]: 1 µg/mL (≈ 0.69 µM)
MIC (S. aureus Newbould): 0.5 to 1 µg/mL (≈ 0.345 to 0.69 µM)
MIC [6]: 2 µg/mL (≈ 1.38 µM)
MIC (S. aureus ATCC 43300): 0.5 to 1 µg/mL (≈ 0.345 to 0.69 µM)
MIC (S. aureus ATCC BAA-41): 1 µg/mL (≈ 0.69 µM)
MIC (S. aureus CF1A-L): 1 µg/mL (≈ 0.69 µM)
MIC (S. aureus N315): 0.5 µg/mL (≈ 0.345 µM)
MIC (S. aureus CF7A-L): 1 µg/mL (≈ 0.69 µM)
MIC (S. aureus CF6B-L): 0.5 to 1 µg/mL (≈ 0.345 to 0.69 µM)
MIC (S. aureus MA078038): 0.5 to 1 µg/mL (≈ 0.345 to 0.69 µM)
MIC (S. aureus SHY97-3906): 0.5 to 1 µg/mL (≈ 0.345 to 0.69 µM)
MIC (S. aureus SCV CF1D-S): 2 µg/mL (≈ 1.38 µM)
MIC (S. aureus Mu50): 4 µg/mL (≈ 2.76 µM)
Fold (−TO/+TO) (S. aureus ATCC 29213 [7]; ATCC 29213, tomatidine at 8 μg/ml): 1 fold
MIC (S. aureus ATCC 29213 [7]; ATCC29213): 1 µg/mL (≈ 0.69 µM)
MIC (S. aureus ATCC 29213 [7]; ATCC29213, read-out: MIC −TO): 1 µg/mL (≈ 0.69 µM)
MIC (S. aureus SCV CF07-S; CF07-S + HQNO at 20 μg/ml): 2 µg/mL
MIC (S. aureus SCV CF07-S; CF07-S, without HQNO): 2 µg/mL (≈ 1.38 µM)
MIC (S. aureus SCV CF07-S; Staphylococcus aureus, SCVCF07S): 2 µg/mL (≈ 1.38 µM)
MIC (S. aureus CF4B-L): 1 µg/mL (≈ 0.69 µM)
MIC (S. aureus Sa228c): 1 µg/mL (≈ 0.69 µM)
MIC (S. aureus CF2A-L): 1 µg/mL (≈ 0.69 µM)
MIC (S. aureus 8325-4): 1 µg/mL (≈ 0.69 µM)
incorporation of radiolabeled precursors into the targeted macromolecules [8]: preferentially inhibited
MIC (S. aureus Sa220c): 1 µg/mL (≈ 0.69 µM)
MIC (S. aureus MRSA COL): 2 µg/mL (≈ 1.38 µM)

MIC (S. aureus ATCC 29213 [1]; [9]): 8 to 16 µg/mL (≈ 24.8 to 49.5 µM)
SMILES: O=C(N[C@H](CO)[C@H](O)c1ccc([N+](=O)[O-])cc1)C(Cl)Cl [chloramphenicol]
incorporation of radiolabeled precursors into the targeted macromolecules [8]: preferentially inhibited

MIC (S. aureus ATCC 29213 [1]; [9]): 0.008 to 0.015 µg/mL (≈ 0.00972 to 0.0182 µM)
SMILES: CO[C@H]1/C=C/O[C@@]2(C)Oc3c(C)c(O)c4c(O)c(c(/C=N/N5CCN(C)CC5)c(O)c4c3C2=O)NC(=O)/C(C)=C\C=C\[C@H](C)[C@H](O)[C@@H](C)[C@@H](O)[C@@H](C)[C@H](OC(C)=O)[C@@H]1C [rifampicin]
